Test results taken from patent US10092568B2, “CBP/Catenin antagonists for enhancing asymmetric division of somatic stem cells” (University of Southern California, priority 2010, dated 2018).

Columns and labels:
[1] = system: fibroblasts from IPF patients; experiment: S100A4/FSP-1 expression in fibroblasts from IPF patients in vitro; assay type: cell-based
Excerpt: Fibrosis. Idiopathic pulmonary fibrosis (IPF)/usual interstitial pneumonia (UIP), the most common of the idiopathic interstitial pneumonias, is a devastating, progressive disorder characterized by excessive fibroblast proliferation and extracellular matrix remodeling leading to lung destruction. There is currently no effective therapy for this uniformly fatal disease. An emerging paradigm proposes a central role for alveolar epithelial cell injury and dysregulated repair in the pathogenesis of IPF. Injury to the epithelium is thought to initiate a cascade of fibroblast activation and matrix deposition, which in predisposed hosts fails to resolve as it would in the course of normal wound repair. Epithelial cells undergo excessive apoptosis, whereas fibroblasts are less amenable to apoptosis and manifest increased survival. The well-characterized model of bleomycin-induced lung injury has been extensively used to investigate potential pathways involved in the pathogenesis of pulmonary fibrosis and to explore therapeutic approaches.

[2] = system: bleomycin-induced pulmonary fibrosis; experiment: Bleomycin-induced lung injury / pulmonary fibrosis; assay type: in vivo, mouse
[3] = system: Min mouse; experiment: Min mouse polyp model; assay type: in vivo
Excerpt: Cancer. The importance of Wnt signaling in colorectal cancer is undisputed. Applicant's investigation on the therapeutic utility of ICG-001 therefore quite naturally began with colon cancer.

[4] = system: cerebral deposition of Aβ; experiment: Aβ deposition in penta-transgenic mouse model of Alzheimer's disease; assay type: in vivo; settings: 50 mg/kg/day, 2 months
Description: Applicant utilized a penta-transgenic mouse model of AD, which normally develops massive cerebral deposition of Aβ starting at 6 weeks of age. These mice were treated with either (A) ICG-001 (50 mg/kg/day) or (B) saline for 2 months. […] However, the effects of PS-1 mutations on the stability of beta-catenin, TCF/beta-catenin signaling, and thereby its potential role in AD remain controversial. […] In the CNS, EpB2 expression is associated with axonal guidance (16). […] In initial in vivo studies, applicant treated penta-transgenic mice that over express mutant APP (695) (Swedish (K670N, M671L), Florida (I716V) and London (V717I)) and PS-1 (M146L and L286V) mutations with ICG-001 for 2 months (months 2-4). These mice normally develop massive cerebral deposition of Aβ starting at 6 weeks of age.

[5] = system: imatinib resistant (IR) CML cells / leukemia stem cells; experiment: Imatinib resistant CML, in vitro and NOD/SCID/IL2rγ−/− mouse model of engrafted human CML; assay type: in vivo
Excerpt: Chronic myelogenous leukemia (CML). Despite the stunning clinical success achieved to date in chronic phase CML patients treated with the BCR-ABL antagonist Gleevec/Imatinib (IM), responses in advanced phase patients are often short-lived, and patients invariably undergo disease progression. Furthermore, resistance to IM develops in 2% to 4% of patients annually and IM dose escalation is generally not sufficient to control the disease. Several mechanisms that contribute to tyrosine kinase inhibitor (TKI) resistance have been proposed including the insensitivity of quiescent CML stem cells to TKIs due to low expression of BCR-ABL and the emergence of drug resistant leukemic clones associated with increased nuclear catenin levels, a hallmark of increased Wnt/catenin transcription. […] Epigenetic silencing of negative regulators of the Wnt signaling cascade is also frequently associated with leukemias, including CML. […] The mice treated with one course (28 days from day 13-41 after leukemia engraftment) of CBP/catenin antagonist plus bcr-abl antagonist are essentially cured of leukemia and live as long (approximately 2 years) as their littermates that were never engrafted with leukemia.

O=C1[C@H](Cc2ccc(O)cc2)N2C(=O)CCN(C(=O)NCc3ccccc3)[C@H]2CN1Cc1cccc2ccccc12 [ICG-001]
expression of S100A4/FSP-1 [1]: significantly decreased
lacZ expression in airway and alveolar epithelium ([2]; BAT-gal transgenic mice, intranasal bleomycin): significantly reduced
expression of genes associated with fibrosis, ECM deposition and EMT ([2]; after bleomycin): essentially to the level of control
expression of S100A4/FSP-1 ([2]; in vivo in the mouse): significantly decreased
established fibrosis ([2]; mouse model): could reverse established fibrosis
severity of pulmonary fibrosis ([2]; pretreatment): significantly reduced the severity
polyps [3]: reducing polyps
Aβ staining in the parietal lobe [4]: significant (A) decrease
amyloid plaque formation ([4]; immunohistochemistry): significant decrease
drug resistant leukemia stem cells ([5]; NOD/SCID/IL2rγ−/− mice engrafted with human CML): can be eliminated
differentiation of the IR cells ([5]; in vitro and in vivo): induces the differentiation
effects on normal endogenous hematopoiesis ([5]; mouse, in vivo): without deleterious effects
